Here are results for three molecules from patent US20120077760A1, “NOVEL SALTS OF SITAGLIPTIN” (LEK Pharmaceuticals D.D., priority 2009, published 2012).

This data set in a line: Solubility of sitagliptin salts in water at 25° C.

As a reminder, the solubility is the concentration that dissolves in the medium under given conditions.

Experimental: The solubility in water was measured using Crysta™ from Avantium Technologies.

In the case of `N[C@@H](CC(=O)N1CCn2c(nnc2C(F)(F)F)C1)Cc1cc(F)c(F)cc1F.O=C[C@H](O)[C@@H](O)[C@H](O)[C@H](O)C(=O)O` [D-Glucuronate, Sitagliptin D-Glucuronate], the “solubility in water (in words)” value was “very good”. Under “25° C.”, the Solubility in water was above 500 mg/mL. On to `N[C@@H](CC(=O)N1CCn2c(nnc2C(F)(F)F)C1)Cc1cc(F)c(F)cc1F` [Dihydrogen phosphate, sitagliptin dihydrogen phosphate, reference compound], for which the solubility (25 °C, thermodynamic from solid) fell in the range of 100 to 120 mg/mL. Consider Sitagliptin Oxalate, for which the “solubility in water (in words)” value is “very good”.
